Test system: recombinant human MAO-B
Test: not given
Set-up: method as in earlier work
Details: cited from earlier work

Row | Molecule | IC50 [µM]
1 | L-[^18F]Deprenyl | 0.227 ± 0.0368

Test system: MAO-B
Test: not given
Set-up: method as in PMID 31060887
Details: cited from earlier work

Row | Molecule | IC50 [µM]
2 | COC[C@@H]1CN(c2noc3cc(OCCCCC[18F])ccc23)C(=O)O1 [[^18F]6] | 0.11

Target: T1, MAO-B (Rattus norvegicus, UniProt P19643)
T1 construct: from tissue; host or cells: rat brain (membrane homogenates)
T1 sequence (P19643 1-520): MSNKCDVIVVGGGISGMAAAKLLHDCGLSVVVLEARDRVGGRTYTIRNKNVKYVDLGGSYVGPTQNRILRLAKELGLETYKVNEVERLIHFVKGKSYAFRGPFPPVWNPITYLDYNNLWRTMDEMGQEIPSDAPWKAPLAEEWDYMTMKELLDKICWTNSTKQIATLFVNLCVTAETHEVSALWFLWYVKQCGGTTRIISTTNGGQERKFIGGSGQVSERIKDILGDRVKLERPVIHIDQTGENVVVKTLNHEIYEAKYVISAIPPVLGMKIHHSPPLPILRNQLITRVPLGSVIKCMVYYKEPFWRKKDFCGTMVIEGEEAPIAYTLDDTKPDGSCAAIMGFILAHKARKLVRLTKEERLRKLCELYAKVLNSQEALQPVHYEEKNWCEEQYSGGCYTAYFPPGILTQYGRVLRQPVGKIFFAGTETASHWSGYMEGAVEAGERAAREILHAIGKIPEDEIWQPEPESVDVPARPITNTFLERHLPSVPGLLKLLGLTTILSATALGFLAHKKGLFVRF
Test: Radioligand competition binding assay with L-[^3H]Deprenyl on rat brain membrane homogenates
Details: homologous binding experiments, rat brain homogenates
Experimental: The affinity of the synthesized derivatives towards MAO-B was determined in radioligand competition binding assays. […] Non-specific binding was determined in the presence of 10 μM of rasagiline. The reaction was terminated by rapid filtration using Whatman GF/B glass-fiber filters, pre-soaked in 0.3% polyethyleneimine, and a 48-channel harvester (Biomedical Research and Development Laboratories, Gaithersburg, MD, USA) followed by washing four times with ice-cold TRIS-HCl buffer. Filter-bound radioactivity was quantified by liquid scintillation counting. The results represent two single experiments, each performed in triplicate. […] The data were analyzed with GraphPad Prism, Version 4.1 (GraphPad Inc., La Jolla, CA, USA).

Row | Molecule | Bmax [pmol/mg protein]
3 | L-[^3H]Deprenyl [reference compound] | 2.29 ± 2.08

Same assay, conditions: read-out: IC50 (MAO-B binding affinity)

Row | Molecule | IC50 [µM]
4 | Fc1ccc(N2CCN(CC=Cc3ccccc3)CC2)cn1 [Compound 10, 1-Cinnamyl-4-(6-fluoropyridin-3-yl)piperazine] | > 10
5 | Fc1ncccc1N1CCN(CC=Cc2ccccc2)CC1 [Compound 12, 1-Cinnamyl-4-(2-fluoropyridin-3-yl)piperazine] | > 10

Other lines, results leading:

Row | IC50 [µM] | Molecule
6 | > 10 | O=C(c1ccc(F)cc1)N1CCN(C/C=C/c2ccccc2)CC1 [Compound 8, (E)-(4-cinnamylpiperazin-1-yl)(4-fluorophenyl)methanone]
7 | > 10 | Fc1cccc(N2CCN(CC=Cc3ccccc3)CC2)n1 [Compound 9, 1-Cinnamyl-4-(6-fluoropyridin-2-yl)piperazine]
8 | > 10 | Fc1cc(N2CCN(CC=Cc3ccccc3)CC2)ccn1 [Compound 11, 1-Cinnamyl-4-(2-fluoropyridin-4-yl)piperazine]
9 | > 10 | O=C(c1ccc(F)cc1)N1CCN(C/C=C/c2ccccc2F)CC1 [Compound 13, (E)-(4-Fluorophenyl)(4-(3-(2-fluorophenyl)allyl)piperazin-1-yl)methanone]
10 | > 10 | Fc1cccc(N2CCN(C/C=C/c3ccccc3F)CC2)n1 [Compound 14, (E)-1-(3-(2-Fluorophenyl)allyl)-4-(6-fluoropyridin-2-yl)piperazine]
11 | > 10 | Fc1ccc(N2CCN(C/C=C/c3ccccc3F)CC2)cn1 [Compound 15, (E)-1-(3-(2-Fluorophenyl)allyl)-4-(6-fluoropyridin-3-yl)piperazine]
12 | > 10 | Fc1cc(N2CCN(C/C=C/c3ccccc3F)CC2)ccn1 [Compound 16, (E)-1-(3-(2-Fluorophenyl)allyl)-4-(2-fluoropyridin-4-yl)piperazine]
13 | > 10 | Fc1ccccc1/C=C/CN1CCN(c2cccnc2F)CC1 [Compound 17, (E)-1-(3-(2-Fluorophenyl)allyl)-4-(2-fluoropyridin-3-yl)piperazine]
